Test results: PMC7957578, “N-(1,3,4-Oxadiazol-2-yl)Benzamides as Antibacterial Agents against Neisseria gonorrhoeae” (International Journal of Molecular Sciences, 2021)
Values after ≈ are worked out from the molar mass of the structure shown.

How the values were obtained:
N. gonorrhoeae 166 = test: MIC/MBC against N. gonorrhoeae clinical isolate 166; assay type: cell-based; conditions: Neisseria gonorrhoeae
Protocol: Briefly, bacteria were grown overnight on chocolate agar II at 37° C in the presence of 5% CO2. Afterwards, a bacterial suspension equivalent to 1.0 McFarland standard was prepared and diluted in brucella broth supplemented with yeast extract, neopeptone, hematin, pyridoxal, and NAD. Test agents were added in the first row of the 96-well plates and serially diluted along the plates. Plates were then incubated at 37° C in the presence of 5% CO2 for 24 h. […] Plates were then incubated at 37 ° C in the presence of 5% CO2 for 24 h. The MBC was categorized as the lowest concentration that reduced bacterial growth by 99.9% [45, 46, 47].

MRSA USA300 = test: MIC/MBC (CLSI broth microdilution) against MRSA USA300; assay type: cell-based, methicillin-resistant Staphylococcus aureus; conditions: Staphylococcus aureus, MRSA USA300
Protocol: (§1) The minimum inhibitory concentrations (MICs) of the tested compounds and control drugs, linezolid, vancomycin, and gentamicin, were determined using the broth microdilution method according to the guidelines outlined by the Clinical and Laboratory Standards Institute (CLSI) against clinically relevant bacterial (Staphylococcus aureus, MRSA, Escherichia coli, Enterococcus faecalis and Enterococcus faecium strains. S. aureus, MRSA, E. coli, Enterococcus faecalis and Enterococcus faecium were grown aerobically overnight on tryptone soy agar (TSA) plates at 37° C. Afterwards, a bacterial solution equivalent to 0.5 McFarland standard was prepared and diluted in cation-adjusted Mueller–Hinton broth (CAMHB) (for S. aureus, MRSA, and E. coli) to achieve a bacterial concentration of about 5 × 10^5 CFU/mL. Enterococcus faecalis and Enterococcus faecium 0.5 McFarland standard solution was diluted in tryptone soy broth (TSB) to achieve a bacterial concentration of about 5 × 10^5 CFU/mL. Compounds and control drugs were added in the first row of 96-well plates and serially diluted with the corresponding media containing bacteria. Plates were then incubated as previously described. […] The minimum bactericidal concentration (MBC) was tested by spotting 4 µL from wells with no growth onto TSA plates. Plates were incubated at 37 ° C for at least 18 h before recording the MBC. The MBC was categorized as the lowest concentration that reduced bacterial growth by 99.9% [45, 46, 47].

E. faecalis ATCC 29212 = test: MIC/MBC (CLSI broth microdilution) against E. faecalis ATCC 29212; assay type: cell-based; conditions: Enterococcus faecalis, ATCC29212, E. faecalis ATCC 29212
Protocol: as §1

VRE. faecium ATCC 700221 = test: MIC/MBC (CLSI broth microdilution) against VRE faecium ATCC 700221; assay type: cell-based; conditions: Enterococcus, VRE faecium ATCC 700221
Protocol: as §1

[1] = system: E. coli JW55031 (TolC Mutant); test: MIC/MBC (CLSI broth microdilution) against E. coli TolC mutant; assay type: cell-based; conditions: Escherichia coli
Protocol: as §1

N. gonorrhoeae = test: MIC against N. gonorrhoeae in presence of fetal bovine serum; assay type: cell-based; conditions: Neisseria gonorrhoeae, 24 h
[2] = system: tested bacterial strains (Table 3); test: MBC versus MIC against the panel of Gram-positive and Gram-negative pathogens; assay type: cell-based; conditions: MBCs more than three-fold higher than MICs, strains of Table 3
Protocol: While the focus of these new N-(1,3,4-oxadiazol-2-yl)benzamides is towards N. gonorrhoeae, we proceeded to test their activity against other Gram-positive and Gram-negative pathogens. Intriguingly, HSGN-235, HSGN-237, and HSGN-238 had potent activity against the tested Gram-positive bacterial pathogens. For instance, all three compounds had potent activity against the staphylococcal strains, with MICs ranging from 0.25 to 1 µg/mL (Table 3). Furthermore, HSGN-235, HSGN-237, and HSGN-238 maintained potent activity against clinically relevant Gram-positive bacterial pathogens such as vancomycin-resistant enterococci (VRE) and Listeria monocytogenes (Table 3). Additionally, we moved to test if HSGN-235, HSGN-237, and HSGN-238 were active against other Gram-negative bacterial pathogens. […] This lack of activity against Gram-negative bacteria appears to be due to HSGN-235, HSGN-237, and HSGN-238 being a substrate for efflux.
The minimum inhibitory concentrations (MICs) of the tested compounds and control drugs, linezolid, vancomycin, and gentamicin, were determined using the broth microdilution method according to the guidelines outlined by the Clinical and Laboratory Standards Institute (CLSI) against clinically relevant bacterial (Staphylococcus aureus, MRSA, Escherichia coli, Enterococcus faecalis and Enterococcus faecium strains. S. aureus, MRSA, E. coli, Enterococcus faecalis and Enterococcus faecium were grown aerobically overnight on tryptone soy agar (TSA) plates at 37° C. Afterwards, a bacterial solution equivalent to 0.5 McFarland standard was prepared and diluted in cation-adjusted Mueller–Hinton broth (CAMHB) (for S. aureus, MRSA, and E. coli) to achieve a bacterial concentration of about 5 × 10^5 CFU/mL. Enterococcus faecalis and Enterococcus faecium 0.5 McFarland standard solution was diluted in tryptone soy broth (TSB) to achieve a bacterial concentration of about 5 × 10^5 CFU/mL. Compounds and control drugs were added in the first row of 96-well plates and serially diluted with the corresponding media containing bacteria. […]

In the case of `O=C(Nc1nnc(-c2ccc(Cl)s2)o1)c1ccc(OC(F)(F)F)cc1` [HSGN-238, N-(5-(5-Chlorothiophen-2-yl)-1,3,4-oxadiazol-2-yl)-4-(trifluoromethoxy)benzamide], the MBC (N. gonorrhoeae 166) is reported as 0.25 µg/mL (≈ 0.641 µM), the MIC (N. gonorrhoeae 166) is reported as 0.125 µg/mL (≈ 0.321 µM) and the MBC (MRSA USA300; read-out: MBC) is reported as 16 µg/mL (≈ 41.1 µM). The MIC (MRSA USA300; read-out: MIC) was 0.25 µg/mL (≈ 0.641 µM), the MBC (E. faecalis ATCC 29212; read-out: MBC) was 32 µg/mL (≈ 82.1 µM) and the MIC (E. faecalis ATCC 29212; read-out: MIC) was 1 µg/mL (≈ 2.57 µM). For the same compound, the MBC (VRE. faecium ATCC 700221; read-out: MBC) was 8 µg/mL (≈ 20.5 µM), the MIC (VRE. faecium ATCC 700221; read-out: MIC) was 0.25 µg/mL (≈ 0.641 µM) and the MBC [1] was 32 µg/mL (≈ 82.1 µM). The MIC [1] was 0.06 µg/mL (≈ 0.154 µM), the MIC (N. gonorrhoeae; 1% FBS added to the media) was 0.25 µg/mL and the MIC (N. gonorrhoeae; 5% FBS added to the media) was 1 µg/mL. For the same compound, the MIC (N. gonorrhoeae; 10% FBS added to the media) was 1 µg/mL and the “type of activity from MBC versus MIC” value [2] was “bacteriostatic agents”.
